Measurements: the supplement of paper PMC10307832

Experiments:
Test in all cases: relative viability (nuclei count vs DMSO), 5 days (fraction); higher = more cells survive
XMD14-99 + Linsitinib = compound: CN1CCN(CC1)C2=CC(=C(C=C2)NC3=NC(=C(S3)C(=O)C4=C(C=CC=C4Cl)Cl)N)OC [XMD14-99] + C[C@]1(O)C[C@@H](c2nc(-c3ccc4ccc(-c5ccccc5)nc4c3)c3c(N)nccn32)C1 [Linsitinib] (partner 1 µM)
Summary of the method: (§1)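 For relative viability, nuclei counts in treated wells were divided by those in vehicle wells. Lung cancer cell lines had been pin-tool dosed in 1536-well plates the day after seeding and cultured for 5 days, then fixed and stained in one step (final 0.05% Triton X-100, 1% formaldehyde, 1 ug/ml Hoechst) and imaged at 4×. Doses were one drug alone or a fixed anchor-drug dose plus five library-drug doses (not always all listed) in √10 steps, and values are duplicate-plate medians.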

AZD1208 + Crizotinib = compound: N[C@@H]1CCCN(c2c(/C=C3\SC(=O)NC3=O)cccc2-c2ccccc2)C1 [AZD1208] + C[C@@H](Oc1cc(-c2cnn(C3CCNCC3)c2)cnc1N)c1c(Cl)ccc(F)c1Cl [Crizotinib] (partner 1 µM)
Summary of the method: as §1

AZD1208 + Pemetrexed = compound: N[C@@H]1CCCN(c2c(/C=C3\SC(=O)NC3=O)cccc2-c2ccccc2)C1 [AZD1208] + Nc1nc2[nH]cc(CCc3ccc(C(=O)N[C@@H](CCC(=O)O)C(=O)O)cc3)c2c(=O)[nH]1 [Pemetrexed] (partner 0.2 µM)
Summary of the method: as §1

AZD1208 + Olaparib = compound: N[C@@H]1CCCN(c2c(/C=C3\SC(=O)NC3=O)cccc2-c2ccccc2)C1 [AZD1208] + O=C(c1cc(Cc2n[nH]c(=O)c3ccccc23)ccc1F)N1CCN(C(=O)C2CC2)CC1 [Olaparib] (partner 8 µM)
Summary of the method: as §1

| Cell Line | relative viability (XMD14-99 + Linsitinib; first compound 0.08 µM) | relative viability (XMD14-99 + Linsitinib; first compound 0.8 µM) | relative viability (XMD14-99 + Linsitinib; first compound 2.53 µM) | relative viability (XMD14-99 + Linsitinib; first compound 8 µM) | relative viability (AZD1208 + Crizotinib; first compound 0.08 µM) | relative viability (AZD1208 + Crizotinib; first compound 0.253 µM) | relative viability (AZD1208 + Crizotinib; first compound 0.8 µM) | relative viability (AZD1208 + Crizotinib; first compound 2.53 µM) | relative viability (AZD1208 + Crizotinib; first compound 8 µM) | relative viability (AZD1208 + Pemetrexed; first compound 0.08 µM) | relative viability (AZD1208 + Pemetrexed; first compound 0.253 µM) | relative viability (AZD1208 + Pemetrexed; first compound 0.8 µM) | relative viability (AZD1208 + Pemetrexed; first compound 2.53 µM) | relative viability (AZD1208 + Pemetrexed; first compound 8 µM) | relative viability (AZD1208 + Olaparib; first compound 0.08 µM) | relative viability (AZD1208 + Olaparib; first compound 0.253 µM) | relative viability (AZD1208 + Olaparib; first compound 0.8 µM) | relative viability (AZD1208 + Olaparib; first compound 2.53 µM) | relative viability (AZD1208 + Olaparib; first compound 8 µM) |
| --- | --- | --- | --- | --- | --- | --- | --- | --- | --- | --- | --- | --- | --- | --- | --- | --- | --- | --- | --- |
| NCI-H2126 | 0.739 | 0.705 | 0.668 | 0.628 | 0.993 | 1.04 | 0.991 | 1.01 | 0.974 | 0.649 | 0.734 | 0.652 | 0.634 | 0.614 | 0.944 | 0.917 | 0.759 | 0.912 | 0.828 |
| LC-2-ad | 0.892 | 0.817 | 0.83 | 0.563 | 0.488 | 0.401 | 0.421 | 0.383 | 0.392 | 0.246 | 0.278 | 0.269 | 0.246 | 0.272 | 0.315 | 0.781 | 0.736 | 0.663 | 0.728 |
| NCI-H1915 | 1.14 | 1.04 | 0.951 | 0.965 | 0.847 | 0.982 | 0.865 | 0.885 | 0.845 | 0.452 | 0.483 | 0.528 | 0.462 | 0.443 | 0.251 | 0.236 | 0.261 | 0.218 | 0.238 |
| NCI-H2085 | 0.872 | 0.86 | 0.784 | 0.667 | 0.703 | 0.906 | 0.951 | 0.865 | 0.882 | 0.912 | 0.971 | 0.936 | 0.817 | 0.893 | 0.769 | 0.913 | 0.79 | 0.764 | 0.849 |
| COR-L 105 | 0.924 | 0.665 | 0.879 | 0.703 | 0.806 | 0.766 | 0.717 | 0.881 | 0.68 | 1.1 | 0.982 | 1.01 | 1.2 | 1.08 | 0.702 | 0.586 | 0.661 | 0.736 | 0.594 |
| SK-LU-1 | 0.872 | 1.2 | 1.07 | 0.671 | 0.991 | 1.16 | 0.882 | 0.819 | 0.674 | 0.956 | 1.02 | 0.988 | 0.944 | 0.869 | 0.446 | 0.419 | 0.367 | 0.448 | 0.436 |
| LXF-289 | 0.894 | 0.926 | 0.939 | 0.798 | 0.853 | 0.894 | 0.8 | 0.814 | 0.928 | 0.887 | 1.01 | 0.924 | 0.634 | 1.02 | 1.03 | 1.23 | 1.06 | 1.03 | 1.01 |
| PC-3 [JPC-3] | 1.04 | 0.878 | 0.828 | 0.844 | 1.01 | 0.996 | 1.04 | 1.05 | 0.982 | 1.22 | 1.04 | 1.09 | 1.18 | 1.2 | 1.17 | 1.31 | 1.1 | 1.2 | 1.19 |
| NCI-H661 | 0.5 | 0.58 | 0.502 | 0.441 | 1.02 | 1 | – | 1 | 1.08 | 0.956 | 0.9 | 0.94 | 0.942 | 0.955 | 0.762 | 0.754 | 0.728 | 0.745 | 0.758 |
| NCI-H1666 | 0.809 | 0.834 | 0.704 | 0.625 | 1.06 | 0.934 | 0.837 | 0.905 | 1.03 | 0.826 | 0.874 | 0.792 | 0.823 | 0.896 | 0.762 | 0.766 | 0.673 | 0.693 | 0.768 |
| NCI-H2087 | 0.894 | 0.695 | 0.679 | 0.646 | 1.06 | 1.13 | 0.812 | 0.993 | 0.979 | 0.664 | 0.713 | 0.475 | 0.649 | 0.627 | 0.543 | 0.548 | 0.513 | 0.515 | 0.435 |
| NCI-H1734 | 0.854 | 0.897 | 0.823 | 0.745 | 0.683 | 0.649 | 0.504 | 0.528 | 0.464 | 0.404 | 0.409 | 0.442 | 0.427 | 0.435 | 0.679 | 0.575 | 0.554 | 0.544 | 0.449 |
| NCI-H2228 | 0.702 | 0.524 | 0.476 | 0.221 | 0.327 | 0.501 | 0.399 | – | 0.427 | 0.328 | 0.368 | 0.357 | 0.371 | 0.344 | 0.557 | 0.754 | 0.584 | 0.527 | 0.673 |
| EMC-BAC-2 | 0.804 | 0.81 | 0.775 | 0.676 | 0.84 | 0.785 | 0.74 | 0.798 | 0.674 | 0.462 | 0.474 | 0.511 | 0.524 | 0.54 | 0.517 | 0.536 | 0.494 | 0.472 | 0.448 |
| NCI-H2009 | 1.2 | 1.15 | 1.19 | 0.91 | 1.07 | 1.14 | 0.972 | 1.06 | 0.979 | 1.01 | 1.03 | 0.917 | 1.11 | 1.06 | 0.701 | 0.81 | 0.698 | 0.673 | 0.647 |
| NCI-H596 | 1.06 | 1.05 | 1.08 | 1.04 | 0.853 | 1.04 | 0.837 | 0.955 | 0.711 | 0.523 | 0.507 | 0.537 | 0.498 | 0.407 | 0.706 | 0.563 | 0.717 | 0.632 | 0.564 |
| NCI-H650 | 1.08 | 0.906 | 0.77 | 0.675 | 0.704 | 0.723 | 0.577 | 0.576 | 0.643 | 0.893 | 0.939 | 0.893 | 0.703 | 0.867 | 0.401 | 0.392 | 0.388 | 0.359 | 0.379 |
